According to PubChem BioAssay AID1902 (Broad Institute, 2009):
Calls of active or inactive are those of the source.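 The calls were made as follows: active = EC50 no more than a set limit of log units above the highest dose; inactive = the rest.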

Target: S. pyogenes SKKanGAS, kanamycin survival, BacTiterGlo, 6 h
Assay: SKKanGAS survival reduction under kanamycin, dose response, streptokinase promoter inhibitor project, SKKanGAS strain, luminescence, dose confirmation (AID 1902);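 also: lower survival reflects blocked streptokinase promoter driving kanamycin resistance gene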

SMILES: N#CC(C#N)=NNc1ccc([N+](=O)[O-])cc1
- EC50: 3.72 µM

SMILES: Cc1cccc(NC(c2ccc(C)s2)c2ccc3ccc(C)nc3c2O)n1 (centres undefined)
- EC50: 3.9 µM

SMILES: Cc1nn(Cc2ccc(C(=O)Nc3nc4c(C)cccc4s3)o2)c(C)c1Br
- EC50: 2.85 µM

SMILES: O=C(NC12CC3CC(CC(C3)C1)C2)c1ccc(-c2ccc(Br)cc2)o1
- EC50: 11 µM

SMILES: Cc1ccc(S(=O)(=O)Nc2cccc3cccnc23)c([N+](=O)[O-])c1
- EC50: 0.632 µM

SMILES: NNC(=O)/C(=N/Nc1ccccc1)S(=O)(=O)c1ccc(Cl)cc1
- EC50: 8.15 µM

SMILES: Cc1cccc(/C=C2\Sc3ccc(C(=O)N4CCC(C)CC4)cc3N(C)C2=O)c1
- EC50: 2.69 µM

SMILES: COc1ccc(Cc2[nH]n3c(=O)cc(C(C)C)nc3c2-c2ccccc2)cc1
- EC50: 2.33 µM

SMILES: Cc1[nH]n(-c2ccccc2)c(=O)c1/C=N/NC(=O)c1ccccc1F
- EC50: 1.12 µM

SMILES: N#Cc1c(-c2ccccc2)nc(SCC(=O)N2c3ccccc3Sc3ccccc32)[nH]c1=O
- EC50: 3.87 µM

SMILES: Cc1cc(N2C(=O)C(O)=C(C(=O)c3cc4ccccc4o3)C2c2cccc(Cl)c2)no1 (centres undefined)
- EC50: 1.33 µM

SMILES: COc1ccc(C(CNC(=O)c2cccc(S(=O)(=O)Nc3ccccc3Cl)c2)N2CCOCC2)cc1 (centres undefined)
- EC50: 11.1 µM

SMILES: COc1ccccc1C(=O)NNC(=O)C(=O)Nc1ccc(C)c(Cl)c1
- EC50: 1.65 µM

SMILES: Cc1ccc2nc(-c3ccc(N)cc3)sc2c1
- EC50: > 15 µM (inactive)

SMILES: O=c1cc2c(nn1Cc1ccc(Cl)cc1Cl)-c1ccccc1CC2
- EC50: 5.37 µM

SMILES: CC1COc2c(N3CCN(C)CC3)c(F)cc3c(=O)c(C(=O)O)cn1c23 (centres undefined)
- EC50: 3.69 µM

SMILES: O=C(Nc1nnc(-c2ccco2)o1)c1ccc(Cl)s1
- EC50: 1.71 µM

SMILES: O=C(/C=C/c1ccco1)Oc1cc(Br)cc(/C=N/NC(=O)c2ccccc2O)c1
- EC50: 1.11 µM

SMILES: Cc1ccc2sc(NNC(=O)c3ccc4c(c3)OCCO4)nc2c1C
- EC50: 3.79 µM

SMILES: CCCCC(=O)NNC(=S)NC(=O)C(c1ccccc1)c1ccccc1
- EC50: 0.188 µM

SMILES: O=C(Cc1csc(NC(=O)Nc2cccc(Cl)c2)n1)NCc1cccnc1
- EC50: 4.4 µM

SMILES: CC(C)C(NC(=O)C(c1ccccc1)c1ccccc1)c1nc2ccccc2[nH]1 (centres undefined)
- EC50: 2.96 µM

SMILES: CCOc1cc(/C=C\[N+](=O)[O-])ccc1OCC(=O)Nc1ccccc1C
- EC50: 9.44 µM

SMILES: CCc1nc2c3cnn(-c4cc(Cl)ccc4C)c3ncn2n1
- EC50: 12.8 µM

SMILES: Cc1cccc(-n2nc(C(=O)c3ccco3)cc(-c3nc4ccccc4[nH]3)c2=N)c1
- EC50: 3.36 µM

SMILES: O=[N+]([O-])c1cc(Cl)cc(/C=N/Nc2nc3ccccc3s2)c1O
- EC50: 1.54 µM

SMILES: Cc1nnc(SCC2=C(C(=O)O)N3C(=O)C(NC(=O)c4cccc(F)c4F)C3SC2)s1 (centres undefined)
- EC50: 0.269 µM

SMILES: CC(C)C1Cc2c(sc3[nH]c(=S)n(Cc4ccccc4)c(=O)c23)CO1 (centres undefined)
- EC50: 2.93 µM

SMILES: CCN(CC)C(=S)SCC(=O)Nc1nc(-c2ccccc2)c(-c2ccccc2)o1
- EC50: 1.26 µM

SMILES: Oc1cccc2ccc(/C=C/c3ccccc3Br)nc12
- EC50: 0.158 µM

SMILES: CSc1c(SCc2ccccc2)cnn(Cc2ccccc2)c1=O
- EC50: 3.95 µM

SMILES: O=C(Nc1nc2ccccc2n1CCOc1ccccc1)c1ccco1
- EC50: 6.87 µM

SMILES: O=C(OCc1csc(Nc2ccccc2)n1)c1ccc(Cl)cc1
- EC50: 14.3 µM

SMILES: COc1ccc(CCNC(=O)c2cccc(NS(=O)(=O)c3ccccc3F)c2)cc1OC
- EC50: > 15 µM (inactive)

SMILES: CC(C)c1nc(N2CCCC2)c(C#N)c2c1CCCC2
- EC50: 4.1 µM

SMILES: O=C(NC(NC(=S)Nc1c(Cl)cc(Cl)cc1Cl)C(Cl)(Cl)Cl)OCc1ccccc1 (centres undefined)
- EC50: 0.978 µM

SMILES: Cc1cc(=O)oc2c3c(cc(OCC(=O)NC4CC4)c12)OC(C)(C)CC3
- EC50: > 15 µM (inactive)

SMILES: COc1ccc(N=C2NN=C(c3c(C)[nH]c4ccccc34)CS2)cc1
- EC50: 7.32 µM

SMILES: [O-][n+]1cccc2c(Br)cc(Br)c(O)c21
- EC50: 0.55 µM

SMILES: Cc1cccc2sc(NC(=O)c3ccc(NS(=O)(=O)c4cccs4)cc3)nc12
- EC50: 1.27 µM

SMILES: Cc1onc(-c2ccccc2)c1C(=O)NC(=S)NNC(=O)c1ccc(O)cc1
- EC50: 0.568 µM

SMILES: O=Nc1c2cc(-c3ccccc3)[nH]nc-2c2ccccc12
- EC50: 6.43 µM

SMILES: O=[N+]([O-])c1c(Nc2cccc(O)c2)cc(Cl)c2nonc12
- EC50: 6.5 µM

SMILES: COc1ccc(C(=O)NC(=S)NNC(=O)c2c(-c3ccccc3)noc2C)cc1OC
- EC50: 0.506 µM
